Assay results reported in patent publication US20240207292A1, “BORONIC ACID COMPOUNDS, COMPOSITIONS AND METHODS” (Trustees of Tufts College, priority 2021, published 2024).
Values joined by “and” are separate entries in the source; they are usually repeats but may differ in a detail not shown here. Equal values may be shown once. Read-outs that look alike come from different tables or passages of the source. Square brackets hold non-standard residues; d marks the D form. Peptide text beside a SMILES is read from it. * marks the point of attachment. X4 = O=C1CN2CCN3CC(=O)O[C]4(C3)CN(CC(=O)*)CCN3CC(=O)O[C](C2)(C3)[Ga]4[O]1; X5 = O=C(O)CN1CCN(CC(=O)O)CCN([C@H](CCC(=O)*)C(=O)O)CCN(CC(=O)O)CC1; X2 = O=C(O)CN1CCCN(CC(=O)O)CCN(CC(=O)*)CCCN(CC(=O)O)CC1; boroPro = OB(O)[C@@H]1CCCN1*

Experiments:
Assay type in all cases: biochemical
[1] = target: recombinant human fibroblast activation protein (FAP) (Homo sapiens (Human), UniProt Q12884); experiment: In vitro assay fibroblast activation protein IC50 (Example 21)
recombinant human fibroblast activation protein (FAP), sequence (Q12884 whole entry): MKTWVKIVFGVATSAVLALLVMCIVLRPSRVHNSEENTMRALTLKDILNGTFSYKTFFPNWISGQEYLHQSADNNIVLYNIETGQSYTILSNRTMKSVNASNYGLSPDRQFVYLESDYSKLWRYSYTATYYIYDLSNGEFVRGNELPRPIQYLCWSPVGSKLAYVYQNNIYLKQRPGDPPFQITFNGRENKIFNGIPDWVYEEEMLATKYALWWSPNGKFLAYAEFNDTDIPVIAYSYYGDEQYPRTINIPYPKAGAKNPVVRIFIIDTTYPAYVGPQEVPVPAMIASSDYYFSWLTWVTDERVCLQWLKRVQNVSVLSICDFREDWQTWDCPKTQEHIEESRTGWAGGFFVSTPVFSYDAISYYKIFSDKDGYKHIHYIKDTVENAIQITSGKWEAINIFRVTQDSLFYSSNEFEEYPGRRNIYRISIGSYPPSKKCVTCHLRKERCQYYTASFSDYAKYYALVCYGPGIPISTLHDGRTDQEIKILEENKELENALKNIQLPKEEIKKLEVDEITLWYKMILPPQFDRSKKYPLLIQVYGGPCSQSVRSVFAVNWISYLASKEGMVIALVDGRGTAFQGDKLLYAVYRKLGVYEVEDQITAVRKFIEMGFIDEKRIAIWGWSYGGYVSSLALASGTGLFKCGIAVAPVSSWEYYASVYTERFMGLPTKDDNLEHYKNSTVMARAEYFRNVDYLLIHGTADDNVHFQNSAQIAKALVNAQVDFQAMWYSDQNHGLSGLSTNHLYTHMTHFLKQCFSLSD
Method: (§1) The purpose of this assay is to determine the IC50 of various inhibitors against recombinant human dipeptidyl peptidase IV (DPPIV), fibroblast activation protein (FAP) or prolyl oligopeptidase (PREP).
(§2) The assays are conducted in the following steps: • 1 Dissolve the compound in DMSO to a final concentration of 100 mM. From this, prepare a 1 mM stock at pH 7.5 in 50 mM Tris, 140 mM NaCl Buffer (FAP)/pH 7.5 in 25 mM Tris, 250 mM NaCl Buffer/[…]. • 2. Serial dilute (1:10) the 1 mM compound stocks prepared previously into the appropriate assay buffer (FAP: 50 mM Tris, 140 mM NaCl, pH 7.5/PREP: 25 mM Tris, 0.25 M NaCl, pH 7.5/DPPIV: 25 mM Tris, pH 8.0) to one row of a 96-well plate. • 3. […] Dilute the enzymes into their appropriate assay buffers. The final enzyme concentrations should be 0.1, 1.2, and 0.6 nM for DPPIV, FAP and PREP respectively. Add 180 μL to each well needed in columns 2-10. Column 1(A,B,C) should be prepared with 200 μl of appropriate assay buffer as control. Column 1(D,E,F,G,H) should be prepared with 20 μl of appropriate assay buffer and 180 ul enzyme as no inhibitor control. • 5. Add 20 μL of the compound of interest from the dilution plate prepared in step 2 to columns 2-10 of the assay plate where appropriate. Each sample should be tested in triplicate. Allow this to incubate for 10 minutes at room temperature, shaking the plate for the first two minutes. • 6. Add 10 μL of 20× substrate prepared in step 3 to each well and allow this to incubate for 15 minutes at room temperature, shaking the plate for the first two minutes. • 7. Read the fluorescence at λex: 380, λem: 460. (DPcore=[dAla|dSer|Gly]-[boroPro|Pro-nitrile], XXaa=alpha-amino acid)

[2] = target: recombinant human prolyl oligopeptidase (PREP) (Homo sapiens (Human), UniProt P48147); experiment: In vitro assay prolyl oligopeptidase IC50 (Example 21)
recombinant human prolyl oligopeptidase (PREP), sequence (P48147 whole entry): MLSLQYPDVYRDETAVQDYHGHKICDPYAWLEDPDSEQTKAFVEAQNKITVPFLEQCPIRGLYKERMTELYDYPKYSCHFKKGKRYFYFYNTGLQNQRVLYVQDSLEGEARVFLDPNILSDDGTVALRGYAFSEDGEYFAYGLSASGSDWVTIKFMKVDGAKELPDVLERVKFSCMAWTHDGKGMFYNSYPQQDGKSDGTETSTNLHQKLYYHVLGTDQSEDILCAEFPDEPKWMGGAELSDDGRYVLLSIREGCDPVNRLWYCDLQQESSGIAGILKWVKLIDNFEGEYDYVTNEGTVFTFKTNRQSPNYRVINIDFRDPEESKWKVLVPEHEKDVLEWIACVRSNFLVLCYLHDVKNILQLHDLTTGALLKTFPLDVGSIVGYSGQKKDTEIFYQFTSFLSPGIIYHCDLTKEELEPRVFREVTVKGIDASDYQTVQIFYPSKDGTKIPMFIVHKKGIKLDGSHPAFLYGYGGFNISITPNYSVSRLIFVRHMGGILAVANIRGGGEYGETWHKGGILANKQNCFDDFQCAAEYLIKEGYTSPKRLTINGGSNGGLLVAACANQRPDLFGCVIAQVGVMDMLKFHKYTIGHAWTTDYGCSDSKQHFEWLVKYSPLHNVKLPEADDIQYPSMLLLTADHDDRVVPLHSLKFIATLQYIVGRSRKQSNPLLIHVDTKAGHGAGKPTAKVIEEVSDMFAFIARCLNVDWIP
Method: as §1, §2

[3] = target: recombinant human dipeptidyl peptidase IV (DPPIV) (Homo sapiens (Human), UniProt P27487); experiment: In vitro assay dipeptidyl peptidase IV IC50 (Example 21)
recombinant human dipeptidyl peptidase IV (DPPIV), sequence (P27487 whole entry): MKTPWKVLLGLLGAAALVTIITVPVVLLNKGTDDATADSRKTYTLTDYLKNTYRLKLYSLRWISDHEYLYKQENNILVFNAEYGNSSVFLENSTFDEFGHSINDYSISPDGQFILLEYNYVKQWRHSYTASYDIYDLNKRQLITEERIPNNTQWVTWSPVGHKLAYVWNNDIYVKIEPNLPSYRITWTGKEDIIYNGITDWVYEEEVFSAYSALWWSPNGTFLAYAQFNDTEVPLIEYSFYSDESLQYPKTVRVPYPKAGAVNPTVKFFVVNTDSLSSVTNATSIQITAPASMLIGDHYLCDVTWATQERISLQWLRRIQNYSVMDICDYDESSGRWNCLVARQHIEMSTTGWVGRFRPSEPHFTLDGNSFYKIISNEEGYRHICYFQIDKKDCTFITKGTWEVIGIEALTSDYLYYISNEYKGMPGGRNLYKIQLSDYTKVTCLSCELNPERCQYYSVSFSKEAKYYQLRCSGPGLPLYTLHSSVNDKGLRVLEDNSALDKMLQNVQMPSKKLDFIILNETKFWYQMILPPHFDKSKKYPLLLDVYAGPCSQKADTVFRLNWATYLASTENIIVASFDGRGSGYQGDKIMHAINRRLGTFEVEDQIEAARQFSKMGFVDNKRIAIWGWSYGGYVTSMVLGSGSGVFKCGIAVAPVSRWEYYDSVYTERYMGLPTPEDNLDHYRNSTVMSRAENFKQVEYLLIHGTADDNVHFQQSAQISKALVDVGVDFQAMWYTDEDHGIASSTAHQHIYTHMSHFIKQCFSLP
Method: as §1, §2

| Structure (SMILES) | IC50 [1] | IC50 [2] [nM] | IC50 ([1]; Z-Gly-Pro-AMC, 1.2 nM enzyme) [nM] | IC50 ([2]; Z-Gly-Pro-AMC, 0.6 nM enzyme) [nM] | IC50 ([3]; Gly-Pro-AMC, 0.1 nM enzyme) [nM] | IC50 [3] [nM] |
| --- | --- | --- | --- | --- | --- | --- |
| C[C@@H](NC(=O)c1ccc(NNC(=O)CCCCCNC(=O)CN2CCN3CCN4CCN(CC2)CC(=O)[O][Lu]([CH2]C(=O)C3)[O]C(=O)C4)nc1)C(=O)N1CCC[C@H]1B(O)O [6958LU] | 1.1 nM | 155 |  |  |  |  |
| C[C@@H](NC(=O)[C@H]1CC[C@H](CNC(=O)CN2CCN3CCN4CCN(CC2)CC(=O)[O][Ga]([O]C(=O)C3)[O]C(=O)C4)CC1)C(=O)N1CCC[C@H]1B(O)O [6952 GA] |  |  | 87 | 50000 | 80000 |  |
| C[C@@H](NC(=O)c1ccc(NNC(=O)CNC(=O)CN2CCN3CCN4CCN(CC2)CC(=O)[O][Lu]([O]C(=O)C3)[O]C(=O)C4)cc1)C(=O)N1CCC[C@H]1B(O)O [6487LU] | 8.8 nM | 34 |  |  |  |  |
| C[C@@H](NC(=O)c1ccc(NNC(=O)CCCCC[N+]2=C(/C=C/C3=C(Oc4ccc(S(=O)(=O)O)cc4)C(=C/C=C4/N(CCCCS(=O)(=O)O)c5ccc(S(=O)(=O)O)cc5C4(C)C)/CCC3)C(C)(C)c3cc(S(=O)(=O)O)ccc32)cc1)C(=O)N1CCC[C@H]1B(O)O [4613 C] | 1.7 nM | 610 |  |  |  |  |
| C[C@@H](NC(=O)c1ccc(CNC(=O)CN2CCN3CCN4CCN(CC2)CC(=O)[O][Ga]([O]C(=O)C3)[O]C(=O)C4)nc1)C(=O)N1CCC[C@H]1B(O)O [6556GA] | 32 nM | 248 |  |  |  |  |
| C[C@@H](NC(=O)c1ccc(NN)nc1)C(=O)N1CCC[C@H]1B(O)O [compound 3860] | 170 nM | 9800 |  |  |  | > 100000 |
| C[C@@H](NC(=O)c1ccc(NNC(=O)CN2CCN(CC(=O)O)CCN(CC(=O)O)CCN(CC(=O)O)CC2)nc1)C(=O)N1CCC[C@H]1B(O)O [compound 4536] | 9 nM | 50 |  |  |  | 84000 |
| CC(C)[C@H](NC(=O)CNC(=O)CNC(=O)CN1CCN2CC(=O)O[C]3(CN4CCN5CC(=O)O[C](C1)(C5)[Ga]3[O]C(=O)C4)C2)C(=O)N[C@H](C)C(=O)N1CCC[C@H]1B(O)O (some centres unmarked) [6522GA-02] (X4-GGV[dA]-boroPro) |  |  | 575 | 19000 | > 100000 |  |
| C[C@@H](NC(=O)c1ccc(NC(=O)CN2CCN3CCN4CCN(CC2)CC(=O)[O][Lu]([O]C(=O)C3)[O]C(=O)C4)cc1)C(=O)N1CCC[C@H]1B(O)O [6572LU] | 9.5 nM | 891 |  |  |  |  |
| C[C@@H](NC(=O)c1ccc(NC(=O)CN2CCN3CCN4CCN(CC2)CC(=O)[O][Ga]([O]C(=O)C3)[O]C(=O)C4)cc1)C(=O)N1CCC[C@H]1B(O)O [6572GA] | 25 nM | 234 |  |  |  |  |
| CC(C)[C@H](NC(=O)CNC(=O)CNC(=O)CN1CCCN(CC(=O)O)CCN(CC(=O)O)CCCN(CC(=O)O)CC1)C(=O)N[C@@H](C)C(=O)N1CCC[C@H]1B(O)O [6522L] (X2-GGVA-boroPro) |  |  | > 100000 | 7.6 | 3400 |  |
| C[C@@H](NC(=O)c1ccc(NNC(=O)CCCCC[N+]2=C(/C=C/C3=C(Oc4ccc(S(=O)(=O)O)cc4)C(=C/C=C4/N(CCCCS(=O)(=O)O)c5ccc(S(=O)(=O)O)cc5C4(C)C)/CCC3)C(C)(C)c3cc(S(=O)(=O)O)ccc32)nc1)C(=O)N1CCC[C@H]1B(O)O [4613 B] | 8.8 nM and 10 nM | 390 |  |  |  | > 100000 |
| CC(C)[C@H](NC(=O)CNC(=O)CNC(=O)CNC(=O)CC[C@H](C(=O)O)N1CCN(CC(=O)O)CCN(CC(=O)O)CCN(CC(=O)O)CC1)C(=O)N[C@H](C)C(=O)N1CCC[C@H]1B(O)O [6808D] (X5-GGGV[dA]-boroPro) |  |  | 11.5 | 11000 |  |  |
| C[C@@H](NC(=O)c1ccc(NNC(=O)CCCCCNC(=O)CN2CCN3CCN4CCN(CC2)CC(=O)[O][Ga]([O]OC(=O)C3)[O]C(=O)C4)cc1)C(=O)N1CCC[C@H]1B(O)O [6486 GA] | 81 nM | 4700 |  |  |  | > 100000 |
